Reference: US11104648B2, “Pyrazole derivative” (Zhejiang Research Institute of Chemical Industry Co., Ltd., priority 2018, dated 2021)
Where two headings read alike, the source gives them in different places.

Tests used:
Type in all cases: in vivo
[1] = test system: Eggs of Tetranychus Cinnabarinus; test: Activity assay of eggs of Tetranychus cinnabarinus (spray method, ovicidal); conditions: Tetranychus cinnabarinus, read-out: ovicidal activity; for pest or weed control at 2 µg/mL: concentration 2 mg/L
Method: According to the solubility of the test compound, the crude drug was dissolved in N N-dimethylformamide, and then prepared into a test solution of the desired concentration with 1‰ Tween 80 aqueous solution. The content of N. N-dimethylformamide in the solution should not exceed 10%.
Spray method. The broad bean leaves with petioles were cut and inserted into a bottle with water. A certain number of female mites were placed, 24h later, adult mites were removed, and spray treatment was performed in 24 h. The experiment was repeated three times, and a blank control was set, and placed to an observation room (26±2° C., humidity 70%˜80%, 16h light per day) for culture. When the blank control group was incubated, the results were investigated. The non-incubated ones were used as death for investigation.

[2] = test system: adult Tetranychus cinnabarinus; test: Activity assay of adult Tetranychus cinnabarinus (whole-plant spray on bean seedlings); conditions: 48 h, read-out: adult mite-killing activity; for pest or weed control at 1.25 µg/mL: concentration 1.25 mg/L
Method: According to the solubility of the test compound, the crude drug was dissolved in N, N-dimethlfornamide, and then prepared into a test solution of the desired concentration with 1‰ Tween 80 aqueous solution. The content of N,N-dimethylformamide in the solution should not exceed 10%.
Two euphylla bean seedlings were taken, after inoculated with adult Tetranychus cinnabarinus and the base number was investigated, whole plants were sprayed with a hand-held sprayer. The experiment was repeated three times for each treatment, after treatment, placed in a standard observation room after treatment, to investigate the survival number of mites in 48 hand calculate the death rate.

[3] = test system: Tetranychus cinnabarinus Nymphs; test: Activity assay of Tetranychus cinnabarinus nymphs (spray on broad bean leaves)
Method: According to the solubility of the test compound, the crude drug was dissolved in N, N-dimethylformamide, and then prepared into a test solution of the desired concentration with 1‰ Tween 80 aqueous solution. The content of N,N-dimethylformamide in the solution should not exceed 10%.
The broad bean leaves with petioles were cut and inserted into a small bottle with water. A certain number of brightly colored, active female adult mites were placed, 24h later, adult mites were removed, and leaves with insufficient eggs were removed. When eggs were hatched and grew into nymphs, spray treatment was performed. The experiment was repeated three times, and a blank control was set, and placed to an observation room (26±2° C., humidity 70%˜80%, 16h light per day) for culture. 48 h later, the results were investigated. The nymphs were gently touched during investigation, and if no response, they were regarded as deaths.

[4] = concentration 5 mg/L, spray, non-incubated eggs counted as dead
[5] = 48 h, concentration 2.5 mg/L, read-out: nymph-killing activity
[6] = 48 h, concentration 2 mg/L, read-out: nymph-killing activity
[7] = concentration 2.5 mg/L, 48 h, read-out: nymph-killing activity

| SMILES | pest or weed control at 5 µg/mL [1, 4] | pest or weed control at 2.5 µg/mL ([2]; concentration 2.5 mg/L) | pest or weed control at 2.5 µg/mL [3, 5] | further results |
| --- | --- | --- | --- | --- |
| Cc1cc(/C(OCOC(=O)c2ccccc2)=C(\C#N)c2ccc(C(C)(C)C)cc2)n(C)n1 [Compound 14] | ≥ 90% | ≥ 90% | ≥ 95% |  |
| CCn1nc(C)c(Cl)c1/C(OCOC(=O)C1CC1)=C(\C#N)c1ccc(C(C)(C)C)cc1 [Compound 309] | ≥ 90% | ≥ 90% | ≥ 95% | pest or weed control at 2 µg/mL ([1]; spray): ≥ 90%; pest or weed control at 1.25 µg/mL [2]: ≥ 90%; pest or weed control at 2 µg/mL [3, 6]: ≥ 90% |
| CCn1nc(C)cc1/C(OC(C)OC(=O)OCCSC)=C(\C#N)c1ccc(C(C)(C)C)cc1 (stereo not drawn) [Compound 599] | ≥ 90% | ≥ 90% | ≥ 95% |  |
| CCC(C)(C)C(=O)OCO/C(=C(/C#N)c1ccc(C(C)(C)C)cc1)c1c(Cl)c(C)nn1C [Compound 91] | ≥ 90% | ≥ 90% | ≥ 95% |  |
| Cc1cc(/C(OCOC(=O)OCC(C)C)=C(\C#N)c2ccc(C(C)(C)C)cc2)n(C)n1 [Compound 457] | ≥ 90% | ≥ 90% | ≥ 95% |  |
| Cc1nn(C)c(/C(OC(C)OC(=O)C2CC2)=C(\C#N)c2ccc(C(C)(C)C)cc2)c1C (stereo not drawn) [Compound 184] | ≥ 90% | ≥ 90% | ≥ 95% |  |
| CCn1nc(C)c(C)c1/C(OC(C)OC(=O)Cc1ccccc1)=C(\C#N)c1ccc(C(C)(C)C)cc1 (stereo not drawn) [Compound 415] | ≥ 90% | ≥ 90% |  | pest or weed control at 2.5 µg/mL [3, 7]: ≥ 95% |
| Cc1cc(/C(OC(C)OC(=O)Cc2ccccc2)=C(\C#N)c2ccc(C(C)(C)C)cc2)n(C)n1 (stereo not drawn) [Compound 40] | ≥ 90% | ≥ 90% |  | pest or weed control at 2.5 µg/mL [3, 7]: ≥ 95% |
| CCn1nc(C)cc1/C(OC(C)OC(=O)OC)=C(\C#N)c1ccc(C(C)(C)C)cc1 (stereo not drawn) [Compound 579] | ≥ 90% | ≥ 90% | ≥ 95% | pest or weed control at 2 µg/mL ([1]; spray): ≥ 90%; pest or weed control at 1.25 µg/mL [2]: ≥ 90%; pest or weed control at 2 µg/mL [3, 6]: ≥ 90% |
| Cc1nn(C)c(/C(OC(C)OC(=O)CF)=C(\C#N)c2ccc(C(C)(C)C)cc2)c1Cl (stereo not drawn) [Compound 112] |  |  |  | pest or weed control at 5 µg/mL [1]: ≥ 90%; pest or weed control at 2.5 µg/mL [2]: ≥ 90%; pest or weed control at 2.5 µg/mL ([3]; 48 h, read-out: nymph-killing activity): ≥ 95% |
| Cc1nn(C)c(/C(OCOC(=O)C(C)(C)C)=C(\C#N)c2ccc(C(C)(C)C)cc2)c1C [Compound 155] | ≥ 90% | ≥ 90% | ≥ 95% |  |
| CCn1nc(C)c(Cl)c1/C(OC(C)OC(=O)C1CC1)=C(\C#N)c1ccc(C(C)(C)C)cc1 (stereo not drawn) [Compound 334] | ≥ 90% | ≥ 90% | ≥ 95% |  |
| CCn1nc(C)cc1/C(OC(C)OC(=O)C1CCCCC1)=C(\C#N)c1ccc(C(C)(C)C)cc1 (stereo not drawn) [Compound 261] | ≥ 90% | ≥ 90% | ≥ 95% |  |
| Cc1cc(/C(OCOC(=O)OCC(F)(F)F)=C(\C#N)c2ccc(C(C)(C)C)cc2)n(C)n1 [Compound 467] | ≥ 90% | ≥ 90% | ≥ 95% |  |
| CCn1nc(C)c(Cl)c1/C(OC(C)OC(=O)CC(C)C)=C(\C#N)c1ccc(C(C)(C)C)cc1 (stereo not drawn) [Compound 332] | ≥ 90% | ≥ 90% | ≥ 95% |  |
